Data: patent publication US5707989A, “Pyrimido[5,4-D]pyrimidines, medicaments comprising these compounds, their use and processes for their preparation” (Dr. Karl Thomae GmbH, priority 1994, dated 1998)

Key:
Assay type in all cases: cell-based
[1] = test system: human tumour cell line KB; assay: EGF/TGF-alpha-stimulated proliferation (thymidine incorporation) of KB cells; settings: TGF-alpha 10 ng/ml or EGF 20 ng/ml, 60 hours, then [3H]-thymidine 16-18 hours, read-out: IC50 for inhibition of the EGF/TGF-alpha-stimulated KB cell proliferation
Experimental: KB cells (obtained from ATCC) were passaged in DMEM (BioWhittaker) in the presence of 10% FCS (Boehringer Mannheim), 50 μM beta-mercaptoethanol and standard antibiotics. As an indicator of EGF/TGF-alpha-stimulated cell proliferation, the EGF-inducedDNA synthesis was determined by measurement of the incorporation of radioactively labelled thymidine. For this, the celels were washed twice and 1500 cells per well were plated out in a 96-well plate in 200 μl IMDM (BioWhittaker) without serum in the presence of 50 μM beta-mercaptoethanol, standard antibiotics, TGF-alpha [10 ng/ml] or EGF [20 ng/ml] and various concentrations of the substances according to the invention (triplicates, maximum DMSO concentration 1%, see proliferation test with F/L-HERc cells). After 60 hours, [^3 H]-thymidine (0.1 μCi in 10 μl) was added for about 16-18 hours. Subsequent measurement of the thymidine incorporation gave IC50 values of 0.1-1 μM for inhibition of the EGF/TGF-alpha-stimulated KB cell proliferation for compounds 2, 6, 17, 18, 19, 72, 83, 93, 95, 96 and 104 of Example 1.

human EGF-R = biological target: T1, human EGF-R (Homo sapiens, UniProt P00533); assay: Inhibition of EGF-dependent proliferation of F/L-HERc cells; settings: human EGF 20 ng/ml, 48 hours
T1 construct: expressed in transfected cells; host or cells: F/L-HERc cells: murine IL-3-dependent line FDC-P1 infected with recombinant retrovirus (LXSN vector, GP+E86 packaging line) carrying human EGF-R cDNA
T1 sequence (P00533 25-1210): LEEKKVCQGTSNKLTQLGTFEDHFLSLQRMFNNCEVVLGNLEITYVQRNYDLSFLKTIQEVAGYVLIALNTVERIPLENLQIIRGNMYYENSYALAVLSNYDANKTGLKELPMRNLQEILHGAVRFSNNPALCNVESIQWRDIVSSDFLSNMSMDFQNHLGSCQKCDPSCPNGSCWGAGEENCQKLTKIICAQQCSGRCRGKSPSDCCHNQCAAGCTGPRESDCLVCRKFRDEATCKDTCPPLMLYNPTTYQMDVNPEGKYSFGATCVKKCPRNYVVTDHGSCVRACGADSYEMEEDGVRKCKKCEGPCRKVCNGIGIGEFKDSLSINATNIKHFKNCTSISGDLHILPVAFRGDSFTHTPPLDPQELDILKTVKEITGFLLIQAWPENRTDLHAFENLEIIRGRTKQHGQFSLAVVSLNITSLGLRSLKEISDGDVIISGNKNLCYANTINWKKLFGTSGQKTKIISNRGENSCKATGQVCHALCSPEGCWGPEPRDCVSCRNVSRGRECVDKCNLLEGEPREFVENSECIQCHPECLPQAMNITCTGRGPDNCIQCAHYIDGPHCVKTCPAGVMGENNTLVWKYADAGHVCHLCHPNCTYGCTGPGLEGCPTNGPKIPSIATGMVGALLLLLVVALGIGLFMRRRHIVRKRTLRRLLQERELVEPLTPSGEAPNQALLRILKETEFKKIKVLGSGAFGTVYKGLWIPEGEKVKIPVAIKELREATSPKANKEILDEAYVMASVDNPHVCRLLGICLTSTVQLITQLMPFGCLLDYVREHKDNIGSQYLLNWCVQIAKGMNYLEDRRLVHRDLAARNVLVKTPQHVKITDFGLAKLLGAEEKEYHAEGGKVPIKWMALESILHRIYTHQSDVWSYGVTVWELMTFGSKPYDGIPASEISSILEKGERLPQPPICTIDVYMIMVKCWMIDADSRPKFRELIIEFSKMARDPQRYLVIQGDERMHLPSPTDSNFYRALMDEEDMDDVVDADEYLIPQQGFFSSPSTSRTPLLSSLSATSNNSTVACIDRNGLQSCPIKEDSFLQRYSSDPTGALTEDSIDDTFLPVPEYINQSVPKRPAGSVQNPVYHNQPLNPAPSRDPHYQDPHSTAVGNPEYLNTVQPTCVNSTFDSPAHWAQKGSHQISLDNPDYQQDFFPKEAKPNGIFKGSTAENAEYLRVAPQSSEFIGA
Description: (§1) The inhibition of EGF-R-mediated signal transmission can be detected, for example, with cells which express human EGF-R, the survival and proliferation of which depend on stimulation by EGF or TGF-alpha. An interleukin-3 (IL-3)-dependent cell line of murine origin which was changed genetically such that it expresses functional human EGF-R was used here. The proliferation of these cells, called F/L-HERc, can therefore be stimulated either by murine IL-3 or by EGF (see von Ruden, T. et al. in EMBO J. 7, 2749-2756 (1988) and Pierce, J. H. et al. in Science 239, 628-631 (1988)).
(§2) The starting material used for the F/L-HERc cells was the cell line FDC-P1, the preparation of which has been described by Dexter, T. M. et al. in J. Exp. Med. 152, 1036-1047 (1980). Alternatively, however, other growth factor-dependent cells can also be used (see, for example, Pierce, J. H. et al. in Science 239, 628-631 (1988), Shibuya, H. et al. in Cell 70, 57-67 (1992) and Alexander, W. S. et al. in EMBO J. 10, 3683-3691 (1991)). Recombinant retroviruses were used for expression of the human EGF-R cDNA (see Ullrich, A. et al. in Nature 309, 418-425 (1984)), as described in yon Ruden, T. et al., EMBO J. 7, 2749-2756 (1988), with the difference that the retroviral vector LXSN (see Miller, A. D. et al. in BioTechniques 7, 980-990 (1989)) was used for expression of the EGF-R cDNA and the line GP+E86 (see Markowitz, D. et al. in J. Virol. 62, 1120-1124 (1988)) was used as the packing cell.
(§3) The test was carried out as follows:
(§4) F/L HERc cells were cultured at 37° C. and 5% CO2 in RPMI/1640 medium (BioWhittaker), supplemented with 10% foetal bovine serum (FCS, Boehringer Mannheim), 2 mM glutamine (BioWhittaker), standard antibiotics and 20 ng/ml of human EGF (Promega). For investigation of the inhibitory activity of the compounds according to the invention, 1.5×10^4 cells per well were cultured in triplicate in 96-well plates in the above medium (200 μl), proliferation of the cells being stimulated with either EGF (20 ng/ml) or murine IL-3. Culture stocks of the cell line X63/0 mIL-3 were used as the source for IL-3 (see Karasuyama, H. et al. in Eur. J. Immunol. 18, 97-104 (1988)). The compounds according to the invention were dissolved in 100% dimethyl sulphoxide (DMSO) and added to the cultures in various dilutions, the maximum DMSO concentration being 1%. The cultures were incubated at 37° C. for 48 hours.
(§5) To determine the inhibitory activity of the compounds according to the invention, the relative cell count was measured in OD units with Cell Titer 96™ Aqueous Non-Radioactive Cell Proliferation Assay (Promega). The relative cell count was calculated in per cent of the control (F/LHERc cells without inhibitor) and the active compound concentration which inhibits the proliferation of the cells to 50% (IC50) was deduced.

F/L-HERc cells = assay: Inhibition of IL-3-dependent proliferation of F/L-HERc cells; settings: Mus musculus, murine IL-3, 48 hours
Description: as §1, §2, §3, §4, §5

Cc1cccc(Nc2ncnc3cnc(NC(C)(C)C)nc23)c1 [1(6), 4-[(3-Methylphenyl)amino]-6-(tert-butylamino)-pyrimido[5,4-d]pyrimidine]
IC50 [1]: 100 to 1000 nM | IC50 (human EGF-R): 5 nM | IC50 (F/L-HERc cells): > 10000 nM

Cc1cccc(Nc2ncnc3cnc(NC4CC4)nc23)c1 [1(17), 4-[(3-Methylphenyl)amino]-6-(cyclopropylamino)-pyrimido[5,4-d]pyrimidine]
IC50 [1]: 100 to 1000 nM | IC50 (human EGF-R): 40 nM | IC50 (F/L-HERc cells): > 3000 nM

Cc1cccc(Nc2ncnc3cnc(N4CCOCC4)nc23)c1 [1(19), 4-[(3-Methylphenyl)amino]-6-(morpholino)-pyrimido[5,4-d]pyrimidine]
IC50 [1]: 100 to 1000 nM | IC50 (human EGF-R): 50 nM | IC50 (F/L-HERc cells): > 10000 nM

Cc1cccc(Nc2ncnc3cnc(N[C@H]4CC[C@H](O)CC4)nc23)c1 [1(72), 4-[(3-Methylphenyl)amino]-6-[(trans-4-hydroxycyclohexyl)amino]-pyrimido[5,4-d]pyrimidine]
IC50 [1]: 100 to 1000 nM | IC50 (human EGF-R): 3 nM | IC50 (F/L-HERc cells): > 3000 nM

Clc1cccc(Nc2ncnc3cnc(NC4CC4)nc23)c1 [Example 1(83), 4-[(3-Chlorophenyl)amino]-6-(cyclopropylamino)-pyrimido[5,4-d]pyrimidine]
IC50 [1]: 100 to 1000 nM

Clc1cccc(Nc2ncnc3cnc(N4CCCC4)nc23)c1 [Example 1(93), 4-[(3-Chlorophenyl)amino]-6-(1-pyrrolidinyl)-pyrim-ido[5,4-d]pyrimidine]
IC50 [1]: 100 to 1000 nM

CC(C)Nc1ncc2ncnc(Nc3cccc(Br)c3)c2n1 [Example 1(95), 4-[(3-Bromophenyl)amino]-6-(isopropylamino)-pyrimido[5,4-d]pyrimidine]
IC50 [1]: 100 to 1000 nM

CC(C)Nc1ncc2ncnc(Nc3cccc(Cl)c3)c2n1 [Example 1(96), 4-[(3-Chlorophenyl)amino]-6-(isopropylamino)-pyrim-ido[5,4-d]pyrimidine]
IC50 [1]: 100 to 1000 nM

O[C@H]1CC[C@H](Nc2ncc3ncnc(Nc4cccc(Br)c4)c3n2)CC1 [Example 1(104), 4-[(3-Bromophenyl)amino]-6-[(trans-4-hydroxycyclohexyl)-amino]pyrimido[5,4-d]pyrimidine]
IC50 [1]: 100 to 1000 nM
